Source: PubChem BioAssay AID1963428 (Molecular Pharmacology Branch, DTP, NCI, 2024)

Test system: 171881-019-R-J1-PDC complex spheroid growth, % test/control
Experiment: Anticancer human tumor 171881-019-R-J1-PDC patient-derived invasive breast carcinoma cell line growth inhibition [Asc]
Conditions: for IC50: curve of first compound; for viability, T/C: stronger effect = lower value; active = viability on the fitted dose curve at most 10% of control; inactive = the rest
Experimental: Multicellular complex tumor spheroid response to apoptosis pathway targeting inhibitors Alrizomadlin, Pelcitoclax, and Dasminapant in combination with a variety of drugs and investigational agents in selected tumor cell lines
The MDM2 inhibitor alrizomadlin, the Bcl-2/Bcl-xL inhibitor pelcitoclax, and the IAPs inhibitor dasminapant were evaluated both individually and in combination with standard of care and investigational anticancer small molecules within a complex spheroid model of solid tumors. . Complex spheroids include a stromal component modeled by human endothelial cells (HUVEC) and fibroblasts modeled by human mesenchymal stem cells (MSCs). The concentration ranges selected for each drug and investigational agent were based upon clinically achievable concentrations if the clinical Cmax of the agent was known.
Compounds. The drugs and investigational agents: alrizomadlin (APG-115; NSC831270), pelcitoclax (APG-1252; NSC835773), dasminapant (APG-1387;NSC834197), TAK-243 (NSC785004), copanlisib (NSC809693), olaparib (NSC753686), talazoparib (NSC767125), cobimetinib (NSC 768068), eltanexor (KPT-8602, NSC 794443), abemaciclib (NSC 768073), sotorasib (NSC818433), adagrasib (NSC 831453), MRTX-1133 (NSC 836407), Iadademestat (ORY1001, NSC 806812), and RMC-4630 (NSC839698), were obtained from the NCI Developmental Therapeutics Program Chemical Repository. The FDA-approved anticancer drug set is available from the Developmental Therapeutics Program at https://dtp.cancer.gov/organization/dscb/obtaining/available plates.htm. […] The stock solutions were prepared in dimethyl sulfoxide (DMSO, Sigma-Aldrich, St. Louis, MO, cat. D2650) at 800-fold the tested concentration and stored at -70 degrees C prior to their use. All drugs and investigational agents were tested over a range starting from a high concentration at or near the clinical Cmax and decreasing in half-log increments. If the clinical Cmax for an agent had not been determined, the highest concentration tested was 10 microM.
The patient-derived cancer (PDC) cell lines include five colon adenocarcinomas: 186277-243-T-J2-PDC, 616215-338-R-J1-PDC, 439559-082-T-J2-PDC, 463943-066-T-J2-PDC, and 519858-162-T-J1-PDC; three pancreatic carcinomas: 323965-272-R-J2-PDC, 521955-158-R6-J3-PDC, and 521955-158-R2-J5-PDC; two uterine sarcomas: 327498-152-R-J2-PDC and 993429-296-R-J1-PDC; two rhabdomyosarcomas: 755483-174-R-J1-PDC and 772245-204-R-J1-PDC; two soft tissue sarcomas: 126254-015-R-J1-PDC and 494315-158-R-J1-PDC; two malignant fibrous histiocytomas: 317291-083-R-J1-PDC and 596521-263-R-J1-PDC; two breast carcinomas: 171881-019-R-J1-PDC and 885512-296-R-J2-PDC; and one ovarian carcinoma: 6556581-035-R-J-PDC were obtained from the NCI PDMR, (https://pdmr.cancer.gov). The established cell lines HSSY-2 synovial sarcoma (RRID:CVCL 8719), SYO-1 synovial sarcoma (RRID:CVCL_7146), MPNST malignant peripheral neural sheath tumor were obtained from the Sloan Kettering Institute. The following established cell lines were purchased from the American Type Culture Collection (ATCC, Manassas, VA), Sor the received from the NCI repository:, PANC-1 pancreatic carcinoma (CRL-1469, RRID:CVCL_0480), OVCAR-5 ovarian carcinoma (RRID:CVCL_1628), OVCAR-8 ovarian carcinoma (RRID:CVCL_1629), , MCF-7 breast carcinoma (CRL-12584, RRID:CVCL_0031), MDA-MB-231 breast carcinoma (CRL-12532, RRID:CVCL_0062), NCI-H1876 small cell lung carcinoma (CRL-5902, RRID:CVCL_1503), NCI-H510A small cell lung carcinoma (HTB-184, RRID:CVCL_1565), NCI-H1417 (CRL-5869, RRID:CVCL_1469), and NCI-H196 small cell lung carcinoma (CRL-5823, RRID:CVCL_1509). Dr. Peter Houghton (Greehey Children's Cancer Research Institute, University of Texas Health Science Center, San Antonio, TX) provided Rh-18 rhabdomyosarcoma (RRID:CVCL_1659). Pooled donor human umbilical vein endothelial cells (HUVEC, Lonza, cat. CC-2519) and human mesenchymal stem cells (hMSC, Lonza, cat. PT-2501) were purchased from Lonza (Walkersville, MD).
Cell Culture. […]
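Throughout, for viability, T/C: spheroids exposed to compounds for 7 days.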

CCN1CCN(Cc2ccc(Nc3ncc(F)c(-c4cc(F)c5nc(C)n(C(C)C)c5c4)n3)nc2)CC1 + CCN1C(C(=O)NC23CCC(C(=O)O)(CC2)CC3)C(c2cccc(Cl)c2F)C2(C(=O)Nc3cc(Cl)ccc32)C12CCCCC2
> 1000 nM: IC50 (second compound 0.03 µM) | IC50 (second compound 0.0949 µM) | IC50 (second compound 0.3 µM) | IC50 (second compound 0.949 µM) | IC50 (second compound 3 µM)
inactive: viability, T/C (second compound 0.03 µM, first compound 0.00316 µM) 97.8% | viability, T/C (second compound 0.03 µM, first compound 0.01 µM) 86.6% | viability, T/C (second compound 0.03 µM, first compound 0.0316 µM) 108% | viability, T/C (second compound 0.03 µM, first compound 0.1 µM) 128% | viability, T/C (second compound 0.03 µM, first compound 0.316 µM) 133% | viability, T/C (second compound 0.03 µM, first compound 1 µM) 133% | viability, T/C (second compound 0.0949 µM, first compound 0.00316 µM) 104% | viability, T/C (second compound 0.0949 µM, first compound 0.01 µM) 96.2% | viability, T/C (second compound 0.0949 µM, first compound 0.0316 µM) 115% | viability, T/C (second compound 0.0949 µM, first compound 0.1 µM) 117% | viability, T/C (second compound 0.0949 µM, first compound 0.316 µM) 144% | viability, T/C (second compound 0.0949 µM, first compound 1 µM) 144% | viability, T/C (second compound 0.3 µM, first compound 0.00316 µM) 109% | viability, T/C (second compound 0.3 µM, first compound 0.01 µM) 115% | viability, T/C (second compound 0.3 µM, first compound 0.0316 µM) 109% | viability, T/C (second compound 0.3 µM, first compound 0.1 µM) 111% | viability, T/C (second compound 0.3 µM, first compound 0.316 µM) 129% | viability, T/C (second compound 0.3 µM, first compound 1 µM) 126% | viability, T/C (second compound 0.949 µM, first compound 0.00316 µM) 114% | viability, T/C (second compound 0.949 µM, first compound 0.01 µM) 119% | viability, T/C (second compound 0.949 µM, first compound 0.0316 µM) 112% | viability, T/C (second compound 0.949 µM, first compound 0.1 µM) 118% | viability, T/C (second compound 0.949 µM, first compound 0.316 µM) 129% | viability, T/C (second compound 0.949 µM, first compound 1 µM) 143% | viability, T/C (second compound 3 µM, first compound 0.00316 µM) 101% | viability, T/C (second compound 3 µM, first compound 0.01 µM) 107% | viability, T/C (second compound 3 µM, first compound 0.0316 µM) 115% | viability, T/C (second compound 3 µM, first compound 0.1 µM) 130% | viability, T/C (second compound 3 µM, first compound 0.316 µM) 146% | viability, T/C (second compound 3 µM, first compound 1 µM) 144%

Cn1ncnc1[C@H]1c2n[nH]c(=O)c3cc(F)cc(c23)N[C@@H]1c1ccc(F)cc1 + CNC(C)C(=O)NC1CN(S(=O)(=O)c2cccc(S(=O)(=O)N3CCC4CCC(C(=O)NC(c5ccccc5)c5ccccc5)N4C(=O)C(NC(=O)C(C)NC)C3)c2)CCC2CCC(C(=O)NC(c3ccccc3)c3ccccc3)N2C1=O
> 100 nM: IC50 (second compound 0.01 µM) | IC50 (second compound 0.0316 µM) | IC50 (second compound 0.1 µM) | IC50 (second compound 0.316 µM) | IC50 (second compound 1 µM)
inactive: viability, T/C (second compound 0.01 µM, first compound 0.000316 µM) 78.9% | viability, T/C (second compound 0.01 µM, first compound 0.001 µM) 91.9% | viability, T/C (second compound 0.01 µM, first compound 0.00316 µM) 95.9% | viability, T/C (second compound 0.01 µM, first compound 0.01 µM) 101% | viability, T/C (second compound 0.01 µM, first compound 0.0316 µM) 89.3% | viability, T/C (second compound 0.01 µM, first compound 0.1 µM) 95.2% | viability, T/C (second compound 0.0316 µM, first compound 0.000316 µM) 103% | viability, T/C (second compound 0.0316 µM, first compound 0.001 µM) 98.5% | viability, T/C (second compound 0.0316 µM, first compound 0.00316 µM) 94.8% | viability, T/C (second compound 0.0316 µM, first compound 0.01 µM) 104% | viability, T/C (second compound 0.0316 µM, first compound 0.0316 µM) 104% | viability, T/C (second compound 0.0316 µM, first compound 0.1 µM) 92.4% | viability, T/C (second compound 0.1 µM, first compound 0.000316 µM) 95.3% | viability, T/C (second compound 0.1 µM, first compound 0.001 µM) 97.1% | viability, T/C (second compound 0.1 µM, first compound 0.00316 µM) 101% | viability, T/C (second compound 0.1 µM, first compound 0.01 µM) 100% | viability, T/C (second compound 0.1 µM, first compound 0.0316 µM) 96% | viability, T/C (second compound 0.1 µM, first compound 0.1 µM) 89% | viability, T/C (second compound 0.316 µM, first compound 0.000316 µM) 94.2% | viability, T/C (second compound 0.316 µM, first compound 0.001 µM) 97.4% | viability, T/C (second compound 0.316 µM, first compound 0.00316 µM) 94.8% | viability, T/C (second compound 0.316 µM, first compound 0.01 µM) 95.3% | viability, T/C (second compound 0.316 µM, first compound 0.0316 µM) 97.8% | viability, T/C (second compound 0.316 µM, first compound 0.1 µM) 90.7% | viability, T/C (second compound 1 µM, first compound 0.000316 µM) 85% | viability, T/C (second compound 1 µM, first compound 0.001 µM) 98.5% | viability, T/C (second compound 1 µM, first compound 0.00316 µM) 93.3% | viability, T/C (second compound 1 µM, first compound 0.01 µM) 83.8% | viability, T/C (second compound 1 µM, first compound 0.0316 µM) 107% | viability, T/C (second compound 1 µM, first compound 0.1 µM) 85.5%
